This is an account of results in patent publication US8829000B2, “Substituted imidazo[1,5-A]quinoxalines as phosphodiesterase 9 inhibitors” (ASKA Pharmaceutical Co., Ltd., priority 2006, dated 2014).

Structures can show the parent of a compound that is named as a salt.

This assay has as its system partial urethra obstruction model in guinea pigs. The experiment in a line: Dysuria pathological model: cystometry in partial urethra obstruction model. Conditions: guinea pig; for Frequency of occurrence of uninhibited contraction, before administration / Residual urine volume, before administration: baseline. It is filed as in vivo, Hartley female guinea pigs. Here is the method: Three-four weeks old Hartley female guinea pigs (Japan SLC, Inc.) were given celiotomy under anesthesia with pentobarbital (30 mg/kg i.p.) and in their urethra to the peripheral side by 1-2 mm from the bladder neck, each a polyethylene tube of […] and 2.0 mm in inner diameter was placed.
The model was catheterized under anesthesia with urethane (1 g/kg i.p.) at the apex of urinary bladder and right jugular vein for cystometrography and intravenous administration, respectively. The other end of the bladder catheter was connected to a pressure transducer and infusion pump via a three way stop-cock, and physiological saline was continuously infused into the bladder through the infusion pump at a rate of 0.4 mL/min. to induce micturition reflex. Immediately after the micturition reflex was induced, infusion of physiological saline into the bladder was stopped. The intravesical pressure at the time the micturition reflex was induced was measured with the pressure transducer, and the obtained cystometrogram was recorded with pen recorder. The urine voided was collected with disposable type weighing dish and its weight was measured. Further the physiological saline remained in the bladder was sucked with syringe via the bladder catheter and the residual urine volume was measured. The operations of suspending the infusion of physiological saline upon induction of micturition reflex, and about 1 minute thereafter resuming the infusion of physiological saline to induce micturition reflex were repeated plural times (generally 4 times) to stabilize the micturition reflex.
After stabilizing the micturition reflex, a compound solution (prepared by dissolving the compound or methanesulfonic acid salt thereof in DMSO and diluting it with physiological saline or distilled water) or physiological saline was administered into the vein at a volume of 10 mL/kg over 4 minutes, and simultaneously the above-described micturition reflex operations were repeated until 30 minutes passed after initiation of the administration, while measuring the intravesical pressure and the volumes of micturition and residual urine. Also the frequency of uninhibited contraction occurrence during the above-described operations was recorded.

Regarding `CC(C)c1ncc2c(=O)[nH]c3cc(C(=O)N(C)C)ccc3n12` [Example 9 (methanesulfonic acid salt)], under “0.3 mg/kg i.v.”, the “Frequency of occurrence of uninhibited contraction, after administration” value turned out to be 1.45 times/min; the “Frequency of occurrence of uninhibited contraction, quantitative change” value is −0.64 times/min; the “Residual urine volume, after administration” value worked out at 0.11 mL; the “Residual urine volume, quantitative change” value was -0.32 mL. Under “3 mg/kg i.v.”, the “Frequency of occurrence of uninhibited contraction, after administration” value is 0.99 times/min; the “Frequency of occurrence of uninhibited contraction, quantitative change” value is reported as −1.10 times/min; the “Residual urine volume, after administration” value came out at 0.63 mL; the “Residual urine volume, quantitative change” value is on record as “+0.20 mL”. Further, under “10 mg/kg i.v.”, the “Frequency of occurrence of uninhibited contraction, after administration” value is on record as 0.00 times/min; the “Frequency of occurrence of uninhibited contraction, quantitative change” value is −0.57 times/min; the “Residual urine volume, after administration” value was 0.03 mL; the “Residual urine volume, quantitative change” value was -0.34 mL. Where the note is “dose group 0.3 mg/kg i.v.”, the “Frequency of occurrence of uninhibited contraction, before administration” value stood at 2.09 times/min and the “Residual urine volume, before administration” value was determined as 0.43 mL. For the same compound, where the note is “dose group 3 mg/kg i.v.”, the “Frequency of occurrence of uninhibited contraction, before administration” value turned out to be 2.09 times/min and the “Residual urine volume, before administration” value came out at 0.43 mL. Besides, under “dose group 10 mg/kg i.v.”, the “Frequency of occurrence of uninhibited contraction, before administration” value stood at 0.57 times/min and the “Residual urine volume, before administration” value came to 0.37 mL.

Consider `CC(C)c1ncc2c(=O)[nH]c3cc(Cl)ccc3n12` [Example 6 (methanesulfonic acid salt)], for which, under “0.1 mg/kg i.v.”, the “Frequency of occurrence of uninhibited contraction, after administration” value was determined as 1.82 times/min; the “Frequency of occurrence of uninhibited contraction, quantitative change” value was “+0.62 times/min”; the “Residual urine volume, after administration” value is given as 0.13 mL; the “Residual urine volume, quantitative change” value was -0.12 mL. In addition, for the setting “1 mg/kg i.v.”, the “Frequency of occurrence of uninhibited contraction, after administration” value is reported as 1.97 times/min; the “Frequency of occurrence of uninhibited contraction, quantitative change” value is listed as “+0.77 times/min”; the “Residual urine volume, after administration” value was 0.47 mL; the “Residual urine volume, quantitative change” value was 0.22 mL. For the setting “3 mg/kg i.v.”, the “Frequency of occurrence of uninhibited contraction, after administration” value is on record as 0.68 times/min; the “Frequency of occurrence of uninhibited contraction, quantitative change” value is −0.52 times/min; the “Residual urine volume, after administration” value was found to be 0.21 mL; the “Residual urine volume, quantitative change” value was -0.04 mL. For the setting “dose group 0.1 mg/kg i.v.”, the “Frequency of occurrence of uninhibited contraction, before administration” value amounted to 1.20 times/min and the “Residual urine volume, before administration” value amounted to 0.25 mL. Moreover, where the note is “dose group 1 mg/kg i.v.”, the “Frequency of occurrence of uninhibited contraction, before administration” value was found to be 1.20 times/min and the “Residual urine volume, before administration” value was 0.25 mL. Further, for the setting “dose group 3 mg/kg i.v.”, the “Frequency of occurrence of uninhibited contraction, before administration” value is reported as 1.20 times/min and the “Residual urine volume, before administration” value amounted to 0.25 mL.
